Laboratory results from US20050239884A1, “Compositions comprising hmg-coa reductase inhibitor” (priority 2002, published 2005).
Counter-ions that a name gives are not always drawn.

Assay: degradation kinetics of fluvastatin in aqueous solution at various pH
Format: physicochemical

% fluvastatin remaining at 37° C. after 1 hour (pH 1.0, 37° C.): 10.9%
% fluvastatin remaining at 37° C. after 24 hrs (pH 1.0, 37° C.): 0%
% fluvastatin remaining at 37° C. after 1 hour (pH 4.0, 37° C.): 86.7%
% fluvastatin remaining at 37° C. after 24 hrs (pH 4.0, 37° C.): 25.2%
% fluvastatin remaining at 37° C. after 1 hour (pH 6.0, 37° C.): 99.6%
% fluvastatin remaining at 37° C. after 24 hrs (pH 6.0, 37° C.): 97.1%
% fluvastatin remaining at 37° C. after 1 hour (pH 7.8, 37° C.): 98.3%
% fluvastatin remaining at 37° C. after 24 hrs (pH 7.8, 37° C.): 98.0%
SMILES: CC(C)n1c(/C=C/C(O)CC(O)CC(=O)O)c(-c2ccc(F)cc2)c2ccccc21 (stereo not drawn) [fluvastatin, R*,S*-(E)-(±)-7-[3-(4-fluorophenyl)-1-(1-methyl-ethyl)-1H-indol-2-yl]-3,5-dihydroxy-6-heptenoic acid, sodium salt]
